Results: patent publication US20200016097A1, “Methods for Preventing and Treating Radiation-Induced Epithelial Disorders” (priority 2009, published 2020)

Tested on: IEC-18 cells
Test: Repair of mechanically wounded IEC-18 monolayers
Format: cell-based, rat
Conditions: 5% PEG 15-20, 50 ng/ml EGF; after 24 hours
Experimental: In order to assess the ability of HMW PEG to induce the repair of epithelial monolayers following injury, IEC-18 cells were grown to confluency in 60 mm dishes, rinsed then the monolayer was mechanically wounded using a razor blade. Detached cells were removed and fresh medium containing 5% PEG 15-20, 50 ng/ml Epidermal Growth Factor (EGF) or a combination of both was added. The cells were maintained in the presence of treatment for 24 hours or were treated for 2 minutes, washed then incubated without treatment for 24 hours. Wound healing was assessed by the decrease in the length of the wound after 24 hours.

With “EGF: Epidermal Growth Factor, 50 ng/ml (NSDSECPLSHDGYCLHDGVCMYIEALDKYACNCVVGYIGERCQYRDLKWWELR; UniProt P01133 971-1023, looked up)” the “wound healing (decrease in the length of the wound)” value was “induced wound healing”.
